{"source": "patent US20060217445A1", "about": "“Natural astaxanthin extract reduces dna oxidation” (priority 2003, published 2006)", "key": {"[1]": {"tested_on": "splenocytes of tumor-bearing mice", "conditions": "dietary; cited from earlier work"}, "[2]": {"assay": "Plasma astaxanthin by reverse phase HPLC in supplemented human subjects", "format": "in vivo", "set-up": "Astaxanthin Levels (plasma): unit not given here", "conditions": "for Astaxanthin Levels (plasma): oral", "protocol": "(§1) Free-living healthy female Korean subjects (average age 21.5 years) were recruited at Inha University, Korea. A three-day dietary record was obtained prior to the study to provide background dietary information. Subjects had no history of diabetes, cancer or alcohol abuse, and were non-smokers. They were allowed to consume their normal diets but advised to restrain from eating astaxanthin-rich foods. Subjects were assigned to receive 0 (control), 2, or 8 mg astaxanthin (109 g astaxanthin/kg oleoresin concentrate from Haematococcus pluvialis, astaZanthin™, La Haye Laboratories Inc., Redmond, Wash.) (n=14 subjects/diet) for eight weeks in a double-blind placebo control study. The astaxanthin was administered in the form of one soft gel capsule taken every morning. Blood was again drawn on week 0, 4 and 8 to assess immune function and oxidative status.\nHPLC. Astaxanthin content in plasma was analyzed by reverse phase HPLC (Alliance 2690 Waters HPLC system fitted with a photodiode array detector, Waters, Milford, Mass.) as previously described (Park et al., J Nutr. 128(10):1650-1656, 1998). Trans-β-apo-8′carotenal (Sigma Chem. Co., St. Louis, Mo.) was used as the internal standard."}, "human subjects": {"tested_on": "human subjects", "assay": "Delayed-type hypersensitivity (DTH) response to intracutaneous tuberculin", "format": "in vivo", "protocol": "as §1\nDelayed-type hypersensitivity. Delayed-type hypersensitivity (DTH) response to an intracutaneous injection of tuberculin (Mono-Vacc Test (O.T.), Pasteur Merieux Connaught, France) was assessed on week 8. The injection was administered by a physician and skin thickness and induration were measured at 0, 24, 48 and 72 hours after challenge. In general, DTH response was maximal at 48 to 72 h post-injection (FIG. 9). Subjects fed 2 mg astaxanthin had higher (P<0.08) DTH response than unsupplemented controls."}, "[3]": {"tested_on": "peripheral blood mononuclear cell (PBMC)", "assay": "Mitogen-induced lymphoproliferation, whole blood cultures", "format": "in vivo, human", "conditions": "especially 8 mg; significant (P<0.05) on wk 8", "protocol": "as §1\nLymphoproliferation. The proliferation response of peripheral blood mononuclear cell (PBMC) to PHA (2 and 10 mg/L final concentration), concanavalin A (Con A; 2 and 10 mg/L), and pokeweed mitogen (PWM; 1 and 5 mg/L) was assessed using whole blood cultures as described (Chew et al., J Nutr. 130(8):1910-1913, 2000). Whole blood was cultured in order to mimic in vivo conditions. Results were calculated as stimulation index (cpm of mitogen-stimulated culture/cpm of unstimulated cultures). Astaxanthin supplementation, especially those given 8 mg astaxanthin, increased lymphocyte proliferation when stimulated by the T cell-dependent mitogens PHA (FIG. 2) and Con A (FIG. 3), and also B cell mitogen (PWM, FIG. 4). The increases were significant (P<0.05) on wk 8 for all mitogens."}, "[4]": {"tested_on": "CD3 (total T), CD4 (Th), CD8 (Tc), NK, CD21 (B cells)", "assay": "Leukocyte subsets by flow cytometry", "format": "in vivo, human", "protocol": "as §1\n(§2) Leukocyte subset. Subpopulations of CD3 (total T), CD4 (Th), CD8 (Tc), NK (natural killer), and CD21 (B cells) were quantitated by flow cytometry as previously described (Chew et al. 2000). In addition, the distribution of the cell surface adhesion molecules ICAM-1 (CD54), LFA-1 (CD11a) and LFA-3 (CD58), also was measured by flow cytometry. The population of total T cells was higher (P<0.05) in astaxanthin-fed (both levels) subjects than unsupplemented controls on wk 4 and 8 (FIG. 6). The population of B cells also was higher (P<0.05) in subjects given 2 mg astaxanthin after 8 weeks (FIG. 7)."}, "[5]": {"tested_on": "ICAM-1 (CD54), LFA-1 (CD11a) and LFA-3 (CD58)", "assay": "Cell surface adhesion molecules by flow cytometry", "format": "in vivo, human", "conditions": "for frequency of cells expressing LFA-1 marker: week 8 (control 31.8%)", "protocol": "as §1, §2"}, "K562 target cells": {"tested_on": "K562 target cells", "assay": "Natural killer cell cytotoxic activity (PBMC effector, MTT)", "format": "in vivo, human", "conditions": "8 mg daily, wk 8, effector:target ratio 10:1, P<0.05", "protocol": "as §1\nNatural killer cell cytotoxic activity. Effector (PBMC) and target (K562) cells were cultured at effector:target ratios of 5:1 and 10:1 in Dulbecco's Modified Eagles Medium (Sigma, St. Louis, Mo.) containing 100 mL/L fetal bovine serum, 100 U/mL penicillin, and […] streptomycin sulfate. Killing was assessed using MTT. Percent of specific cytotoxicity calculated as follows: % Specific cytotoxicity=1−(ODeffector+target−ODeffector)/ODtarget×100. […]"}, "[6]": {"tested_on": "8-Hydroxy-2′-deoxyguanosine (8-OHdG)", "assay": "Oxidative damage to DNA: plasma 8-OHdG by ELISA", "format": "in vivo, human", "set-up": "Average Levels of 8-OHdG (plasma): unit not given here", "conditions": "for Average Levels of 8-OHdG (plasma): oral", "protocol": "as §1\nOxidative damage to DNA. 8-Hydroxy-2′-deoxyguanosine (8-OHdG) was measured in plasma by ELISA (BIOXYTECH™ 8-OHhdG-EIA Kit, OxisResearch, Portland, Oreg.; sensitivity=0.5 μg/L)."}, "[7]": {"tested_on": "8-epi-prostaglandin F2α (8-isoprostane)", "assay": "Lipid peroxidation: plasma 8-isoprostane by ELISA", "format": "in vivo, human", "conditions": "2 or 8 mg daily, 8 weeks", "protocol": "as §1\nLipid-peroxidation. Plasma concentrations of 8-epi-prostaglandin F2α (8-isoprostane) was measured by ELISA."}, "rats": {"tested_on": "rats", "conditions": "rats fed 400 ppm for 41 days; cited from earlier work"}, "[8]": {"tested_on": "UVA-induced oxidative stress", "conditions": "in vitro; cited from earlier work"}, "[9]": {"conditions": "cited from earlier work"}, "[10]": {"conditions": "mice fed the same amount of these carotenoids; cited from earlier work"}, "lipid peroxidation": {"tested_on": "lipid peroxidation", "conditions": "cited from earlier work"}, "[11]": {"tested_on": "cytotoxic T lymphocyte activity and IFN-γ production", "conditions": "astaxanthin-fed mice; cited from earlier work"}, "splenocytes": {"tested_on": "splenocytes", "conditions": "mice; cited from earlier work"}}, "note": "Entries after “also recorded” stand apart in the source; their conditions may differ.", "data": [{"smiles": "CC1=C[C@H](O)CC(C)(C)[C@H]1/C=C/C(C)=C/C=C/C(C)=C/C=C/C=C(C)/C=C/C=C(C)/C=C/C1=C(C)C[C@@H](O)CC1(C)C", "note": "[lutein]", "values": [{"measurement": "IFN-γ mRNA expression", "setting": "[1]", "result": "increased"}, {"measurement": "expression of IL-10", "setting": "[1]", "result": "decreased"}]}, {"smiles": "CC1=C(/C=C/C(C)=C/C=C/C(C)=C/C=C/C=C(C)/C=C/C=C(C)/C=C/C2=C(C)C(=O)C(O)CC2(C)C)C(C)(C)CC(O)C1=O", "note": "(stereo not drawn) [astaxanthin, 3,3′-dihydroxy-beta,beta-carotene-4,4′-dione]", "values": [{"measurement": "Astaxanthin Levels (plasma)", "setting": "[2]; 2 mg astaxanthin daily, 4 week", "result": 0.0960}, {"measurement": "Astaxanthin Levels (plasma)", "setting": "[2]; 2 mg astaxanthin daily, 8 week", "result": 0.0921}, {"measurement": "Astaxanthin Levels (plasma)", "setting": "[2]; 8 mg astaxanthin daily, 4 week", "result": 0.1309}, {"measurement": "Astaxanthin Levels (plasma)", "setting": "[2]; 8 mg astaxanthin daily, 8 week", "result": 0.1162}, {"measurement": "plasma astaxanthin prior to feeding", "setting": "[2]; week 0", "result": "undetectable"}, {"measurement": "plasma astaxanthin, change on feeding", "setting": "[2]; weeks 4 and 8, dose-dependently, P<0.01", "result": "increased"}, {"measurement": "DTH response vs unsupplemented controls", "setting": "human subjects; 2 mg daily, week 8, P<0.08", "result": "higher"}, {"measurement": "DTH response vs unsupplemented controls", "setting": "human subjects; 8 mg daily, week 8", "result": "did not show a similar heightened DTH response"}, {"measurement": "Con A-induced lymphocyte proliferation (stimulation index)", "setting": "[3]", "result": "increased; also recorded: stimulated"}, {"measurement": "PHA-induced lymphocyte proliferation (stimulation index)", "setting": "[3]", "result": "increased; also recorded: stimulated"}, {"measurement": "PWM-induced lymphocyte proliferation (stimulation index)", "setting": "[3]", "result": "increased; also recorded: stimulated"}, {"measurement": "population of B cells", "setting": "[4]; 2 mg daily, after 8 weeks, P<0.05", "result": "higher"}, {"measurement": "population of B cells", "setting": "[4]; 8 mg daily", "result": "did not elevate"}, {"measurement": "population of Th, Tc or NK cells or ratio of Th:Tc cells", "setting": "[4]; 2 or 8 mg daily", "result": "did not significantly influence"}, {"measurement": "population of total T cells vs unsupplemented controls", "setting": "[4]; both levels (2 and 8 mg), wk 4 and 8, P<0.05", "result": "higher; also recorded: increased"}, {"measurement": "expression of LFA-1 adhesion molecules", "setting": "[5]; 2 mg daily, P<0.05", "result": "increased"}, {"measurement": "frequency of cells expressing LFA-1 marker", "setting": "[5]; 2 mg daily", "result": 42.1, "unit": "%"}, {"measurement": "frequency of cells expressing LFA-1 marker", "setting": "[5]; 8 mg daily", "result": 30.6, "unit": "%"}, {"measurement": "ICAM-1 or LFA-3 expression", "setting": "[5]; 2 or 8 mg daily", "result": "No similar dietary effect"}, {"measurement": "NK cell cytotoxic activity", "setting": "K562 target cells", "result": "higher; also recorded: increased"}, {"measurement": "Average Levels of 8-OHdG (plasma)", "setting": "[6]; 2 mg astaxanthin daily, 0 week (baseline)", "result": 23.4}, {"measurement": "Average Levels of 8-OHdG (plasma)", "setting": "[6]; 2 mg astaxanthin daily, 4 week", "result": 13.8}, {"measurement": "Average Levels of 8-OHdG (plasma)", "setting": "[6]; 2 mg astaxanthin daily, 8 week", "result": 14.4}, {"measurement": "Average Levels of 8-OHdG (plasma)", "setting": "[6]; 8 mg astaxanthin daily, 0 week (baseline)", "result": 23.5}, {"measurement": "Average Levels of 8-OHdG (plasma)", "setting": "[6]; 8 mg astaxanthin daily, 4 week", "result": 15.3}, {"measurement": "Average Levels of 8-OHdG (plasma)", "setting": "[6]; 8 mg astaxanthin daily, 8 week", "result": 13.2}, {"measurement": "further decrease of DNA damage with higher dose", "setting": "[6]; 8 mg vs 2 mg daily", "result": "did not decrease further"}, {"measurement": "plasma 8-oxodG concentration vs unsupplemented subjects", "setting": "[6]; 2 or 8 mg daily, as early as wk 4, P<0.01", "result": "dramatically lower"}, {"measurement": "reduction in 8-OHdG (blood DNA damage)", "setting": "[6]; after 4 weeks of feeding", "result": "> 35", "unit": "%"}, {"measurement": "lipid peroxidation measured in the plasma (8-isoprostane)", "setting": "[7]", "result": "did not significantly influence"}, {"measurement": "effects on body/organ weight, enzyme activities, pregnancy, or litter size", "setting": "rats", "result": "no harmful effects"}, {"measurement": "protection against UVA-induced oxidative stress relative to lutein and β-carotene", "setting": "[8]", "result": "approximately 100 fold"}, {"measurement": "solubility in oil", "setting": "[9]; oil", "result": "extremely low"}, {"measurement": "solubility in water", "setting": "[9]; water", "result": "substantially insoluble"}, {"measurement": "concentration in plasma vs β-carotene, lutein", "setting": "[10]", "result": "much higher"}, {"measurement": "inhibiting lipid peroxidation vs β-carotene and vitamin E", "setting": "lipid peroxidation", "result": "more effective"}, {"measurement": "cytotoxic T lymphocyte activity and IFN-γ production", "setting": "[11]", "result": "increased"}, {"measurement": "ex vivo antibody response of splenocytes to T-cell antigens", "setting": "splenocytes", "result": "increased"}]}]}
